Data taken from patent US20230086702A1, “SUBSTITUTED 2-AMINO-PYRAZOLYL-[1,2,4]TRIAZOLO[1,5A]PYRIDINE DERIVATIVES AND USE THEREOF” (The Johns Hopkins University, priority 2019, published 2023).
Read-outs that look alike come from different tables or passages of the source.

Assays:
[1] = molecular target: T1, LZK (Homo sapiens, UniProt O43283); test: LZK biochemical assay (TR-FRET, MKK7 phosphorylation); conditions: LZK catalytic domain, MKK7 substrate, 15 μM ATP
T1 construct: 10 nM LZK, catalytic domain, Carna Biosiences in assay buffer; purchased Carna Biosciences ('Carna Biosiences' [sic])
T1 sequence (O43283 168-409 limits assumed): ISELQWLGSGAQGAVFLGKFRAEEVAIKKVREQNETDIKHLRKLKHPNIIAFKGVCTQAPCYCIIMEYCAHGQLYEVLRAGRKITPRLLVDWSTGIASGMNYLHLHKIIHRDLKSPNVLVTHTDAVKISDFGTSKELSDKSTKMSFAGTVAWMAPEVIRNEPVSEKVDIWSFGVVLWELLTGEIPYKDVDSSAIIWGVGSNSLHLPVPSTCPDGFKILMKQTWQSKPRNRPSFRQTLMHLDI
Protocol: (§1) LZK assay is a biochemical assay format designed to screen for inhibitors of LZK. Enzymatic activity of LZK is measured by monitoring phosphorylation of the physiological substrate MKK7 (MAP2K7, Dual specificity mitogen-activated protein kinase kinase 7). Phosphorylation is detected by a TR-FRET system whereby His-tagged MKK7 is labeled by a XL665-labeled anti-His antibody (FRET acceptor, emission 665 nm). LZK phosphorylates MKK7 at T275/S277 which is detected by an Eu-labeled anti-phospho-MKK7 (T275/S277) antibody (FRET donor, excitation 340 nm). Phosphorylation of MKK7 results in an increased TR-FRET signal (Ratio XL665-channel/Eu-channel) and inhibition of enzymatic activity of LZK decreases the TR-FRET signal.
All indicated concentrations final concentrations.
(§2) Detection buffer: 25 mM Tris/HCl pH 7.5, 100 mM EDTA, 100 mM NaCl, 200 mM KF, 0.01% Tween 20, 1:500 Smart Block.

[2] = molecular target: T2, DLK (Homo sapiens, UniProt Q12852); test: DLK biochemical assay (TR-FRET, MKK7 phosphorylation); conditions: DLK catalytic domain, MKK7 substrate, 60 μM ATP
T2 construct: 10 nM DLK, catalytic domain, Carna Biosiences; purchased Carna Biosciences ('Carna Biosiences' [sic])
T2 sequence (Q12852 125-366 limits assumed): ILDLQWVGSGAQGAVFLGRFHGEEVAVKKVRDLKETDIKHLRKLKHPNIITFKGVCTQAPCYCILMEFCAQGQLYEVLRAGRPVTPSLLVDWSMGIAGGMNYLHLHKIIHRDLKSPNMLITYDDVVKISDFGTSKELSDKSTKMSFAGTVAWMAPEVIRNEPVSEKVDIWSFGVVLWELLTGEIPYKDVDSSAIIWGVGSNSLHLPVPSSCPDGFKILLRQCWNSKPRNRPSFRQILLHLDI
Protocol: as §1, with “DLK assay” for “LZK assay”, “of DLK.” for “of LZK.”, “of DLK” for “of LZK”, “nm). DLK” for “nm). LZK”, “at T275/S277,” for “at T275/S277”
All indicated concentrations are final concentrations.
as §2

[3] = molecular target: T1, LZK; test: LZK biochemical assay (TR-FRET, MKK7 phosphorylation)
Outline: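 Read-out is HTRF: Eu-labelled anti-phospho-MKK7 (T275/S277) and XL665 anti-His, incubated 16 h at 32 °C, with a drop in signal marking inhibition. Reaction beforehand: 10 nM LZK kinase domain, 15 nM His-MKK7, 15 µM ATP (final) for 90 min at room temperature, pH 7.5.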

[4] = molecular target: T2, DLK; test: DLK biochemical assay (TR-FRET, MKK7 phosphorylation)
Outline: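 TR-FRET read-out (665/Eu ratio) of MKK7 T275/S277 phosphorylation, with inhibition lowering the signal. Final conditions: 10 nM DLK catalytic domain, 15 nM MKK7, 60 μM ATP, 90 min at RT. Detection incubation 16 h at 37° C in 1536-well or 4° C in 384-well format.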

IC50 [1]	IC50 [2]	IC50 [3]	IC50 [4]	Compound
7.7 nM	68 nM			CC[C@H](C)NC(=O)c1cc(-c2cnn(C3CCc4ccccc43)c2)cn2nc(N)nc12 (mixture of isomers) [Example I-13, 2-Amino-N-[(2S)-butan-2-yl]-6-[1-(2,3-dihydro-1H-inden-1-yl)-1H-pyrazol-4-yl][1,2,4]triazolo[1,5-a]pyridine-8-carboxamide]
3.3 nM	22 nM			CC[C@H](C)NC(=O)c1cc(-c2cnn(C3CCOc4ccccc43)c2)cc2nc(N)nn12 (mixture of isomers) [Example I-16, 2-Amino-N-[(2S)-butan-2-yl]-7-[1-(3,4-dihydro-2H-chromen-4-yl)-1H-pyrazol-4-yl][1,2,4]triazolo[1,5-a]pyridine-5-carboxamide]
3.9 nM	21 nM			CC[C@H](C)NC(=O)c1cc(-c2cnn(C3CCCc4ncccc43)c2)cc2nc(N)nn12 (mixture of isomers) [Example I-19, 2-Amino-N-[(2S)-butan-2-yl]-7-[1-(5,6,7,8-tetrahydroquinolin-5-yl)-1H-pyrazol-4-yl][1,2,4]triazolo[1,5-a]pyridine-5-carboxamide]
4.4 nM	11 nM			CC[C@H](C)NC(=O)c1cc(-c2cnn(C3CCCc4cnccc43)c2)cc2nc(N)nn12 (mixture of isomers) [Example I-20, 2-Amino-N-[(2S)-butan-2-yl]-7-[1-(5,6,7,8-tetrahydroisoquinolin-5-yl)-1H-pyrazol-4-yl][1,2,4]triazolo[1,5-a]pyridine-5-carboxamide]
5.1 nM	33 nM			CC[C@H](C)NC(=O)c1cc(-c2cnn(C3CCCc4ccncc43)c2)cc2nc(N)nn12 (mixture of isomers) [Example I-21, 2-Amino-N-[(2S)-butan-2-yl]-7-[1-(5,6,7,8-tetrahydroisoquinolin-8-yl)-1H-pyrazol-4-yl][1,2,4]triazolo[1,5-a]pyridine-5-carboxamide]
13 nM	27 nM			CC[C@H](C)NC(=O)c1cc(-c2cnn(C3CCCc4cccnc43)c2)cc2nc(N)nn12 (mixture of isomers) [Example I-22, 2-Amino-N-[(2S)-butan-2-yl]-7-[1-(5,6,7,8-tetrahydroquinolin-8-yl)-1H-pyrazol-4-yl][1,2,4]triazolo[1,5-a]pyridine-5-carboxamide]
23 nM	2.7 nM			CC[C@H](C)NC(=O)c1cc(-c2cnn(C(c3ccccc3)C(C)C)c2)cc2nc(N)nn12 (mixture of isomers) [Example I-24, 2-Amino-N-[(2S)-butan-2-yl]-7-{1-[2-methyl-1-phenylpropyl]-1H-pyrazol-4-yl}[1,2,4]triazolo[1,5-a]pyridine-5-carboxamide]
390 nM	7.7 nM			CC[C@H](C)NC(=O)c1cc(-c2cnn(C(c3ccccc3)C3CCC3)c2)cn2nc(N)nc12 (mixture of isomers) [Example I-27, 2-Amino-N-[(2S)-butan-2-yl]-6-{1-[cyclobutyl(phenyl)methyl]-1H-pyrazol-4-yl}[1,2,4]triazolo[1,5-a]pyridine-8-carboxamide]
		3.3 nM	1.1 nM	Nc1nc2c(-c3ccc(=O)n(CC(F)F)c3)cc(-c3cnn(C(c4ccc(C(F)(F)F)nc4)C4CCOCC4)c3)cn2n1 (stereo not drawn) [II-156]
		6.2 nM	2.4 nM	CC[C@@H](c1ccc(C(F)(F)F)nc1)n1cc(-c2cc(-c3ccc(=O)n(CC(F)(F)F)c3)c3nc(N)nn3c2)cn1 [II-159, 5-[2-Amino-6-(1-{(1S)-1-[6-(trifluoromethyl)pyridin-3-yl]propyl}-1H-pyrazol-4-yl)[1,2,4]triazolo[1,5-a]pyridin-8-yl]-1-(2,2,2-trifluoroethyl)pyridin-2(1H)-one]
		5.9 nM	1.5 nM	Nc1nc2c(-c3ccc(=O)n(CC(F)(F)F)c3)cc(-c3cnn(C(c4ccc(C(F)(F)F)nc4)C4CCOCC4)c3)cn2n1 (stereo not drawn) [II-160]
		2 nM	0.8 nM	Nc1nc2c(-c3ccc(=O)n(CC(F)(F)F)c3)cc(-c3cnn([C@H](c4ccc(C(F)(F)F)nc4)C4CCOCC4)c3)cn2n1 [II-162]
		25 nM	4.9 nM	CCC(c1ccc(OC(F)(F)F)nc1)n1cc(-c2cc(-c3ccc(=O)n(CC(F)(F)F)c3)c3nc(N)nn3c2)cn1 (stereo not drawn) [II-163]
		27 nM	4 nM	Nc1nc2c(-c3cn(CC(F)(F)F)c(=O)cn3)cc(-c3cnn(C(c4ccc(C(F)(F)F)nc4)C4CCOCC4)c3)cn2n1 (stereo not drawn) [II-166]
		60 nM	20 nM	CCC(c1ccc(C(F)(F)F)nc1)n1cc(-c2cc(-c3ccn(C)c(=O)c3)c3nc(N)nn3c2)cn1 (stereo not drawn) [II-169]
		11 nM	2.2 nM	Nc1nc2c(-c3ccn(CC(F)F)c(=O)c3)cc(-c3cnn(C(c4ccc(C(F)(F)F)nc4)C4CCOCC4)c3)cn2n1 (stereo not drawn) [II-172]
		13 nM	2.7 nM	Nc1nc2c(-c3ccn(CC(F)(F)F)c(=O)c3)cc(-c3cnn(C(c4ccc(C(F)(F)F)nc4)C4CCOCC4)c3)cn2n1 (stereo not drawn) [II-175]
		74 nM	15 nM	CC[C@@H](c1ccccc1)n1cc(-c2cc(-c3ccc(=O)[nH]c3)n3nc(N)nc3c2)cn1 [II-178, 5-(2-Amino-7-{1-[(1S)-1-phenylpropyl]-1H-pyrazol-4-yl}[1,2,4]triazolo[1,5-a]pyridin-5-yl)pyridin-2(1H)-one]
		8 nM	12 nM	CCC(c1ccc(C(F)(F)F)nc1)n1cc(-c2cc(-c3ccc(=O)n(C(F)F)c3)n3nc(N)nc3c2)cn1 (stereo not drawn) [II-179]
		6.5 nM	4 nM	Nc1nc2cc(-c3cnn(C(c4ccc(C(F)(F)F)nc4)C4CCOCC4)c3)cc(-c3ccc(=O)n(C(F)F)c3)n2n1 (stereo not drawn) [II-182]
		2 nM	1.3 nM	Nc1nc2cc(-c3cnn(C(c4ccc(C(F)(F)F)nc4)C4CCOCC4)c3)cc(-c3ccc(=O)n(CC(F)F)c3)n2n1 (stereo not drawn) [II-185]
		10 nM	7.1 nM	CCC(c1ccc(C(F)(F)F)nc1)n1cc(-c2cc(-c3ccc(=O)n(CC(F)(F)F)c3)n3nc(N)nc3c2)cn1 (stereo not drawn) [II-188]
		5.4 nM	2.9 nM	CC[C@@H](c1ccc(C(F)(F)F)nc1)n1cc(-c2cc(-c3ccc(=O)n(CC(F)(F)F)c3)n3nc(N)nc3c2)cn1 [II-190]
		6.3 nM	3.2 nM	Nc1nc2cc(-c3cnn(C(c4ccc(C(F)(F)F)nc4)C4CCOCC4)c3)cc(-c3ccc(=O)n(CC(F)(F)F)c3)n2n1 (stereo not drawn) [II-191]
		690 nM	240 nM	CCc1nnc(-c2cc(-c3cnn(Cc4ccccc4)c3)cn3nc(N)nc23)s1 [II-197, 6-(1-Benzyl-1H-pyrazol-4-yl)-8-(5-ethyl-1,3,4-thiadiazol-2-yl)[1,2,4]triazolo[1,5-a]pyridin-2-amine]
		260 nM	150 nM	CC(C)c1nnc(-c2cc(-c3cnn(Cc4ccccc4)c3)cn3nc(N)nc23)s1 [II-198, 6-(1-Benzyl-1H-pyrazol-4-yl)-8-[5-(propan-2-yl)-1,3,4-thiadiazol-2-yl][1,2,4]triazolo[1,5-a]pyridin-2-amine]
		410 nM	12 nM	C[C@@H](CO)c1nnc(-c2cc(-c3cnn(Cc4cccc5cn[nH]c45)c3)cn3nc(N)nc23)s1 [II-199, (2S)-2-(5-{2-Amino-6-[1-(1H-indazol-7-ylmethyl)-1H-pyrazol-4-yl][1,2,4]triazolo[1,5-a]pyridin-8-yl}-1,3,4-thiadiazol-2-yl)propan-1-ol]
